In patent publication US20260216294A1, “BETA 2-ADRENERGIC RECEPTOR AGONISTS FOR TREATMENT OR PREVENTION OF MUSCLE WASTING” (ATROGI AB, priority 2023, published 2026):

How the values were obtained:
[1] = test system: L6-myotubes; experiment: Glucose uptake in differentiated L6-myotubes (Biological Example 2); format: cell-based; conditions: glucose uptake in differentiated L6-myotubes; compound at 10 μM, activity relative to isoproterenol at 10 μM; read-out: Biological example 2 (GU)
Method in brief: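 Uptake was quantified as radioactivity in 0.2 M NaOH lysates after a 10 min pulse of 50 nM ^3H-2-deoxyglucose. The pulse followed two agonist exposures at 1×10^−5 M final (isoprenaline or test compound): 1 h 40 min, then 20 min in glucose-free medium after washing. L6 myotubes had been starved overnight in medium with 0.5% fatty-acid-free BSA.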

[2] = test system: L6-myotubes; experiment: Measurement of intracellular cAMP levels in differentiated L6-myotubes (Biological Example 3); format: cell-based; conditions: 0.25 h, intracellular cAMP in differentiated L6-myotubes; compound at 10 μM, activity relative to isoproterenol at 10 μM
Method in brief: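 Intracellular cAMP quantified by AlphaScreen after ethanol extraction and lysis of L6 myotubes. Cells were serum-starved overnight, then exposed for 15 min to compound (final 1×10^−5 M) or isoprenaline in IBMX-containing (1 mM) HBSS buffer, pH 7.4.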

Compound	Emax at 10 µM [1]	Emax at 10 µM [2]
CC12CC(C1)[C@@H]([C@H](O)c1cccc(Cl)c1)N2 [Compound 209]	25 to 50%	< 25%
CC12CC(C1)[C@H]([C@H](O)c1ccccc1F)N2 [Compound 210]	> 75%	> 75%
CC12CC(C1)[C@@H]([C@@H](O)c1ccccc1F)N2 [Compound 211, (S)-{(S)-1-methyl-2-azabicyclo[[2.1.1]]hex-3-yl}(o-fluorophenyl)methanol]	> 75%	< 25%
CC12CC(C1)[C@H]([C@@H](O)c1ccccc1F)N2 [Compound 212]	> 75%	< 25%
CC12CC(C1)[C@@H]([C@H](O)c1ccccc1F)N2 [Compound 213]	> 75%	< 25%
CC1(C)C[C@H]([C@H](O)c2cncc(F)c2)N1 [Compound 214]	> 75%	< 25%
CC1(C)C[C@@H]([C@@H](O)c2cncc(F)c2)N1 [Compound 215]	25 to 50%	< 25%
CC1(C)C[C@@H]([C@H](O)c2cncc(F)c2)N1 [Compound 216]	25 to 50%	< 25%
CC1(C)C[C@H]([C@@H](O)c2cncc(F)c2)N1 [Compound 217]	25 to 50%	< 25%
CCC[C@@H]1CCCC[C@H]([C@@H](O)c2cncc(F)c2)N1 [Compound 218, (S)-[(2R,7R)-7-propyl-2-azepanyl](5-fluoro-3-pyridyl)methanol]	< 25%	< 25%
CCC[C@@H]1CCCC[C@H]([C@H](O)c2cncc(F)c2)N1 [Compound 219, (R)-[(2R,7R)-7-propyl-2-azepanyl](5-fluoro-3-pyridyl)methanol]	< 25%	< 25%
CC12CC(C1)[C@H]([C@H](O)c1cncc(F)c1)N2 [Compound 220, (R)-{(R)-1-methyl-2-azabicyclo[[2.1.1]]hex-3-yl}(5-fluoro-3-pyridyl)methanol]	> 75%	< 25%
CC12CC(C1)[C@@H]([C@@H](O)c1cncc(F)c1)N2 [Compound 221, (S)-{(S)-1-methyl-2-azabicyclo[[2.1.1]]hex-3-yl}(5-fluoro-3-pyridyl)methanol]	50 to 75%	< 25%
CC12CC(C1)[C@H]([C@@H](O)c1cncc(F)c1)N2 [Compound 222, (S)-{(R)-1-methyl-2-azabicyclo[[2.1.1]]hex-3-yl}(5-fluoro-3-pyridyl)methanol]	< 25%	< 25%
CC12CC(C1)[C@@H]([C@H](O)c1cncc(F)c1)N2 [Compound 223, (R)-{(S)-1-methyl-2-azabicyclo[[2.1.1]]hex-3-yl}(5-fluoro-3-pyridyl)methanol]	25 to 50%	< 25%
CO[C@H]1CC[C@H](CCNC[C@H](O)c2cccc(F)c2)CC1 [Compound 224, (R)-1-(m-fluorophenyl)-2-{2-[(1r,4R)-4-methoxycyclohexyl]ethylamino}-1-ethanol]	25 to 50%	< 25%
CO[C@H]1CC[C@H](CCNC[C@H](O)c2cncc(F)c2)CC1 [Compound 225, (R)-1-(5-fluoro-3-pyridyl)-2-{2-[(1r,4R)-4-methoxycyclohexyl]ethylamino}-1-ethanol]	50 to 75%	< 25%
CC1(C)CC[C@H]([C@@H](O)c2cccc(N)c2F)N1 [Compound 226, (S)-[(R)-5,5-dimethyl-2-pyrrolidinyl](3-amino-2-fluorophenyl)methanol]	25 to 50%	< 25%
CC1(C)CC[C@H]([C@H](O)c2cccc(N)c2F)N1 [Compound 227, (R)-[(R)-5,5-dimethyl-2-pyrrolidinyl](3-amino-2-fluorophenyl)methanol]	> 75%	< 25%
CO[C@H]1CC[C@H](CNC[C@H](O)c2cccc(F)c2)CC1 [Compound 228, (R)-1-(m-fluorophenyl)-2-({[(1r,4R)-4-methoxycyclohexyl]methyl}amino)-1-ethanol]	50 to 75%	< 25%
CO[C@H]1CC[C@H](CNC[C@H](O)c2cncc(F)c2)CC1 [Compound 229, (R)-1-(5-fluoro-3-pyridyl)-2-({[(1r,4R)-4-methoxycyclohexyl]methyl}amino)-1-ethanol]	50 to 75%	< 25%

Compound	Emax at 10 µM [1]	Emax at 10 µM [2]
CC1(C)C[C@H]([C@H](O)c2cccc(Cl)c2)N1 [Compound 230]	> 75%	< 25%
CC1(C)C[C@@H]([C@@H](O)c2cccc(Cl)c2)N1 [Compound 231]	25 to 50%	< 25%
CC1(C)C[C@@H]([C@H](O)c2cccc(Cl)c2)N1 [Compound 232]	25 to 50%	< 25%
CC1(C)C[C@H]([C@@H](O)c2cccc(Cl)c2)N1 [Compound 233, (S)-[(R)-4,4-dimethyl-2-azetidinyl](m-chlorophenyl)methanol]	< 25%	< 25%
CCC[C@H]1CCCC[C@@H]([C@H](O)c2cncc(F)c2)N1 [Compound 234, (R)-[(2S,7S)-7-propyl-2-azepanyl](5-fluoro-3-pyridyl)methanol]	> 75%	< 25%
CCC[C@H]1CCCC[C@@H]([C@@H](O)c2cncc(F)c2)N1 [Compound 235, (S)-[(2S,7S)-7-propyl-2-azepanyl](5-fluoro-3-pyridyl)methanol]	< 25%	< 25%
CC1(C)CC[C@H]([C@@H](O)c2cc(F)c(N)c(F)c2)N1 [Compound 236]	> 75%	25 to 50%
CO[C@H]1CC[C@@H](CCNC[C@H](O)c2cccc(F)c2)CC1 [Compound 237, (R)-1-(m-fluorophenyl)-2-{2-[(1s,4S)-4-methoxycyclohexyl]ethylamino}-1-ethanol]	50 to 75%	< 25%
CO[C@H]1CC[C@@H](CCNC[C@H](O)c2cncc(F)c2)CC1 [Compound 238, (R)-1-(5-fluoro-3-pyridyl)-2-{2-[(1s,4S)-4-methoxycyclohexyl]ethylamino}-1-ethanol]	> 75%	< 25%
CO[C@H]1CC[C@H](C(C)(C)NC[C@H](O)c2cccc(F)c2)CC1 [Compound 239, (R)-1-(m-fluorophenyl)-2-{1-methyl-1-[(1r,4R)-4-methoxycyclohexyl]ethylamino}-1-ethanol]	> 75%	< 25%
CO[C@H]1CC[C@H](C(C)(C)NC[C@H](O)c2cncc(F)c2)CC1 [Compound 240, (R)-1-(5-fluoro-3-pyridyl)-2-{1-methyl-1-[(1r,4R)-4-methoxycyclohexyl]ethylamino}-1-ethanol]	> 75%	< 25%
CC12CC(C1)[C@H]([C@H](O)c1cccc(N)c1F)N2 [Compound 241, (R)-{(R)-1-methyl-2-azabicyclo[2.1.1]hex-3-yl}(3-amino-2-fluorophenyl)methanol]	> 75%	< 25%
CC12CC(C1)[C@@H]([C@@H](O)c1cccc(N)c1F)N2 [Compound 242, (S)-{(S)-1-methyl-2-azabicyclo[[2.1.1]]hex-3-yl}(3-amino-2-fluorophenyl)methanol]	50 to 75%	< 25%
CC12CC(C1)[C@H]([C@@H](O)c1cccc(N)c1F)N2 [Compound 243, (S)-{(R)-1-methyl-2-azabicyclo[[2.1.1]]hex-3-yl}(3-amino-2-fluorophenyl)methanol]	50 to 75%	< 25%
CC12CC(C1)[C@@H]([C@H](O)c1cccc(N)c1F)N2 [Compound 244, (R)-{(S)-1-methyl-2-azabicyclo[[2.1.1]]hex-3-yl}(3-amino-2-fluorophenyl)methanol]	50 to 75%	< 25%
CO[C@H]1CC[C@@H](CNC[C@H](O)c2cccc(F)c2)CC1 [Compound 245, (R)-1-(m-fluorophenyl)-2-({[(1s,4S)-4-methoxycyclohexyl]methyl}amino)-1-ethanol]	50 to 75%	< 25%
CO[C@H]1CC[C@@H](CC(C)(C)NC[C@H](O)c2cccc(F)c2)CC1 [Compound 247, (R)-2-{1,1-dimethyl-2-[(1s,4S)-4-methoxycyclohexyl]ethylamino}-1-(m-fluorophenyl)-1-ethanol]	> 75%	< 25%
CO[C@H]1CC[C@@H](CC(C)(C)NC[C@H](O)c2cncc(F)c2)CC1 [Compound 248, (R)-2-{1,1-dimethyl-2-[(1s,4S)-4-methoxycyclohexyl]ethylamino}-1-(5-fluoro-3-pyridyl)-1-ethanol]	> 75%	< 25%
CO[C@H]1CC[C@H](CC(C)(C)NC[C@H](O)c2cccc(F)c2)CC1 [Compound 249, (R)-2-{1,1-dimethyl-2-[(1r,4R)-4-methoxycyclohexyl]ethylamino}-1-(m-fluorophenyl)-1-ethanol]	> 75%	< 25%
CO[C@H]1CC[C@H](CC(C)(C)NC[C@H](O)c2cncc(F)c2)CC1 [Compound 250, (R)-2-{1,1-dimethyl-2-[(1r,4R)-4-methoxycyclohexyl]ethylamino}-1-(5-fluoro-3-pyridyl)-1-ethanol]	50 to 75%	< 25%
CO[C@H]1CC[C@@H](C(C)(C)NC[C@H](O)c2cccc(F)c2)CC1 [Compound 251, (R)-1-(m-fluorophenyl)-2-{1-methyl-1-[(1s,4S)-4-methoxycyclohexyl]ethylamino}-1-ethanol]	< 25%	< 25%
